The source of these data is US20260306496A1, “CDK2 INHIBITOR PYRAZOLOPYRIMIDINE COMPOUNDS” (ALEKSIA THERAPEUTICS, INC., priority 2023, published 2026).

Structures can show the parent of a compound that is named as a salt.

In the first assay the target is CDK2/CCNE1 (Homo sapiens, UniProt P24941). In words: CDK2 homogeneous time-resolved fluorescence (HTRF) assay. It counts as biochemical. The settings on record: 3 nM CDK2/CCNE1, 1 mM ATP, 50 nM ULight-eIF4E-binding protein 1 (Thr37/46) peptide, 60 min at 23° C.; read-out: CDK2/CCNE IC50 <25 nM. As to the method: A CDK homogeneous time-resolved fluorescence (HTRF) assay was used to assess the potency of the compounds described herein.
To an untreated 384-well microtiter plate (ProxiPlate) was added 100 nL 100× test compound in DMSO and 5 μL 2×CDK enzyme in assay buffer (50 mM HEPES, 1 mM EGTA, 10 mM MgCl2, 0.01% Tween 20, 2 mM DTT). The plate was centrifuged at 800 RPM for 1 min then incubated for 20 min at 23° C. 2.5 μL per well of 4×ATP and 2.5 μL 4×ULight™-eIF4E-binding protein 1 (Thr37/46) Peptide) substrate were added to all wells. After addition, the plates were centrifuged at 800 RPM for 1 min. The plates were incubated at 23° C. for 60 min. 5 μL per well 3×EDTA solution were added to each well to stop the reaction. 2.5 μL 7×LANCE Ultra Europium-anti-phospho-eTF4E-binding protein 1 (Thr37/46 antibody) were added to each well and the plate was centrifuged for 1 min at 800 RPM. The plate was incubated for 60 min at 23° C. Fluorescence was read at 340 nm excitation and 665 nm emission on an EnVision 2105 fluorescence reader. The final concentrations of reagents in the activity assay were 3 nM CDK2/CCNE1, 1 mM ATP, 50 nM ULight™-eIF4E-binding protein 1 (Thr37/46) Peptide substrate, 1% DMSO, 10 mM EDTA, and 2 nM LANCE Ultra Europium-anti-phospho-eTF4E-binding protein 1 (Thr37/46).
Dose-response titrations were conducted by using an 11-point, three-fold serial dilution scheme typically starting at 1 μM. Signals were reported as fluorescence units at 665 nm or the ratio of fluorescence units at 665 nm/fluorescence units at 615 nm. Signals are referred to below as “Lance signals”.
Using this assay, the IC50 values of example compounds were determined.
`OCc1cccc(Nc2ncc3cnn(CC4CCCCC4)c3n2)c1` [Compound 20, (3-((1-(cyclohexylmethyl)-1H-pyrazolo[3,4-d]pyrimidin-6-yl)amino)phenyl)methanol]: the IC50 was under 25 nM.

`O=Cc1cccc(Nc2ncc3cnn(CC4CCCCC4)c3n2)c1` [Compound 26, 3-((1-(cyclohexylmethyl)-1H-pyrazolo[3,4-d]pyrimidin-6-yl)amino)benzaldehyde]: the IC50 is under 25 nM.

In the case of `C=CS(=O)(=O)c1ccc(Nc2ncc3cnn(CC4CCCCC4)c3n2)cn1` [Compound 34, 1-(cyclohexylmethyl)-N-(6-(vinylsulfonyl)pyridin-3-yl)-1H-pyrazolo[3,4-d]pyrimidin-6-amine], the IC50 is under 25 nM.

As for `OCCc1cccc(Nc2ncc3cnn(CC4CCCCC4)c3n2)c1` [Compound 35, 2-(3-((1-(cyclohexylmethyl)-1H-pyrazolo[3,4-d]pyrimidin-6-yl)amino)phenyl)ethan-1-ol], the IC50 is under 25 nM.

As for `CN[C@H]1CC[C@@H](Cn2ncc3cnc(Nc4ccc(S(C)(=O)=O)cc4)nc32)CC1` [Compound 45, 1-(((1s,4s)-4-(methylamino)cyclohexyl)methyl)-N-(4-(methylsulfonyl)phenyl)-1H-pyrazolo[3,4-d]pyrimidin-6-amine], the IC50 was under 25 nM.

`CS(=O)(=O)c1ccc(Nc2ncc3cnn([C@@H]4CCC[C@@H](C#N)C4)c3n2)cc1` [Compound 46, (1R,3R)-3-(6-((4-(methylsulfonyl)phenyl)amino)-1H-pyrazolo[3,4-d]pyrimidin-1-yl)cyclohexane-1-carbonitrile]: the IC50 is under 25 nM.

Staying with this assay, now noted: 3 nM CDK2/CCNE1, 1 mM ATP, 50 nM ULight-eIF4E-binding protein 1 (Thr37/46) peptide, 60 min at 23° C.; read-out: CDK2/CCNE IC50 >150 nM.
Turning to `CN1CCN(CCn2ncc3cnc(Nc4ccc(S(C)(=O)=O)cc4)nc32)CC1` [Compound 15, 1-(2-(4-methylpiperazin-1-yl)ethyl)-N-(4-(methylsulfonyl)phenyl)-1H-pyrazolo[3,4-d]pyrimidin-6-amine], the IC50 was over 150 nM.

In the case of `CS(=O)(=O)c1ccc(Nc2ncc3cnn(C[C@H]4CC[C@@H](C(=O)O)CC4)c3n2)cc1` [Compound 16, (1s,4s)-4-((6-((4-(methylsulfonyl)phenyl)amino)-1H-pyrazolo[3,4-d]pyrimidin-1-yl)methyl)cyclohexane-1-carboxylic acid], the IC50 is over 150 nM.

`CS(=O)(=O)c1ccc(Nc2ncc3cnn(C[C@H]4CC[C@@H](C(=O)Oc5ccc(F)cc5)CC4)c3n2)cc1` [Compound 18, 4-Fluorophenyl (1s,4s)-4-((6-((4-(methylsulfonyl)phenyl)amino)-1H-pyrazolo[3,4-d]pyrimidin-1-yl)methyl)cyclohexane-1-carboxylate]: the IC50 is over 150 nM.

Take `Cc1nn(CC2CCCCC2)c2nc(Nc3ccc(S(C)(=O)=O)cc3)ncc12` [Compound 19, 1-(cyclohexylmethyl)-3-methyl-N-(4-(methylsulfonyl)phenyl)-1H-pyrazolo[3,4-d]pyrimidin-6-amine]: the IC50 is over 150 nM.

With `C=CS(=O)(=O)c1ncc(Nc2ncc3cnn(CC4CCCCC4)c3n2)cc1Cl` [Compound 31, N-(5-chloro-6-(vinylsulfonyl)pyridin-3-yl)-1-(cyclohexylmethyl)-1H-pyrazolo[3,4-d]pyrimidin-6-amine], the IC50 is over 150 nM.

Take `C#CC(=O)c1ccc(Nc2ncc3cnn(CC4CCCCC4)c3n2)cc1` [Compound 38, 1-(4-((1-(cyclohexylmethyl)-1H-pyrazolo[3,4-d]pyrimidin-6-yl)amino)phenyl)prop-2-yn-1-one]: the IC50 was over 150 nM.

For the compound `CS(=O)(=O)c1ccc(Nc2ncc3cnn(C4CC(=O)C4)c3n2)cc1` [Compound 39, 3-(6-((4-(methylsulfonyl)phenyl)amino)-1H-pyrazolo[3,4-d]pyrimidin-1-yl)cyclobutan-1-one], the IC50 was over 150 nM.

For the compound `CC#CS(=O)(=O)c1ccc(Nc2ncc3cnn(CC4CCCCC4)c3n2)cc1` [Compound 43, 1-(cyclohexylmethyl)-N-(4-(prop-1-yn-1-ylsulfonyl)phenyl)-1H-pyrazolo[3,4-d]pyrimidin-6-amine], the IC50 was over 150 nM.

On to `C=CC(=O)c1ccc(Nc2ncc3cnn(CC4CCCCC4)c3n2)cc1` [Compound 44, 1-(4-((1-(cyclohexylmethyl)-1H-pyrazolo[3,4-d]pyrimidin-6-yl)amino)phenyl)prop-2-en-1-one], for which the IC50 was over 150 nM.

Take `CS(=O)(=O)c1ccc(Nc2ncc3cnn([C@@H]4CC[C@@H](C#N)C4)c3n2)cc1` [Compound 47, (1R,3R)-3-(6-((4-(methylsulfonyl)phenyl)amino)-1H-pyrazolo[3,4-d]pyrimidin-1-yl)cyclopentane-1-carbonitrile]: the IC50 is over 150 nM.

Staying with this assay, now noted: column 25-150 nM; 3 nM CDK2/CCNE1, 1 mM ATP, 50 nM ULight-eIF4E-binding protein 1 (Thr37/46) peptide, 60 min at 23° C.; read-out: CDK2/CCNE IC50 25-150 nM.
Regarding `CS(=O)(=O)c1ccc(Nc2ncc3cnn(C[C@H]4CC[C@@H](CO)CC4)c3n2)cc1` [Compound 17], the IC50 is 25 to 150 nM.

As to `C=CS(=O)(=O)c1ncc(Nc2ncc3cnn(CC4CCCCC4)c3n2)cn1` [Compound 21, 1-(cyclohexylmethyl)-N-(2-(vinylsulfonyl)pyrimidin-5-yl)-1H-pyrazolo[3,4-d]pyrimidin-6-amine], the IC50 was 25 to 150 nM.

With `OCCc1ccc(Nc2ncc3cnn(CC4CCCCC4)c3n2)cc1` [Compound 22, 2-(4-((1-(cyclohexylmethyl)-1H-pyrazolo[3,4-d]pyrimidin-6-yl)amino)phenyl)ethan-1-ol], the IC50 lay in the range of 25 to 150 nM.

Regarding `C=CS(=O)(=O)c1ccc(Nc2ncc3cnn(CC4CCCCC4)c3n2)cc1C` [Compound 23, 1-(cyclohexylmethyl)-N-(3-methyl-4-(vinylsulfonyl)phenyl)-1H-pyrazolo[3,4-d]pyrimidin-6-amine], the IC50 lay in the range of 25 to 150 nM.

Consider `OCc1ccc(Nc2ncc3cnn(CC4CCCCC4)c3n2)cc1` [Compound 24, (4-((1-(cyclohexylmethyl)-1H-pyrazolo[3,4-d]pyrimidin-6-yl)amino)phenyl)methanol], for which the IC50 was 25 to 150 nM.

For the compound `O=Cc1ccc(Nc2ncc3cnn(CC4CCCCC4)c3n2)cc1` [Compound 25, 4-((1-(cyclohexylmethyl)-1H-pyrazolo[3,4-d]pyrimidin-6-yl)amino)benzaldehyde], the IC50 was 25 to 150 nM.

`CS(=O)(=O)c1ccc(Nc2ncc3cnn(C[C@H]4CC[C@@H](C=O)CC4)c3n2)cc1` [Compound 27, (1s,4s)-4-((6-((4-(methylsulfonyl)phenyl)amino)-1H-pyrazolo[3,4-d]pyrimidin-1-yl)methyl)cyclohexane-1-carbaldehyde]: the IC50 was 25 to 150 nM.

Consider `CS(=O)(=O)c1ccc(Nc2ncc3cnn(Cc4cccc5[nH]ccc45)c3n2)cc1` [Compound 29, 1-((1H-indol-4-yl)methyl)-N-(4-(methylsulfonyl)phenyl)-1H-pyrazolo[3,4-d]pyrimidin-6-amine], for which the IC50 fell in the range of 25 to 150 nM.

As for `C=C(C)S(=O)(=O)c1ccc(Nc2ncc3cnn(CC4CCCCC4)c3n2)cc1` [Compound 30, 1-(cyclohexylmethyl)-N-(4-(prop-1-en-2-ylsulfonyl)phenyl)-1H-pyrazolo[3,4-d]pyrimidin-6-amine], the IC50 lay within 25 to 150 nM.

For `C=CS(=O)(=O)c1ccc(Nc2ncc3cnn(CC4CCCCC4)c3n2)cc1F` [Compound 36, 1-(cyclohexylmethyl)-N-(3-fluoro-4-(vinylsulfonyl)phenyl)-1H-pyrazolo[3,4-d]pyrimidin-6-amine], the IC50 fell in the range of 25 to 150 nM.

Consider `C=CS(=O)(=O)c1c(F)cc(Nc2ncc3cnn(CC4CCCCC4)c3n2)cc1F` [Compound 37, 1-(cyclohexylmethyl)-N-(3,5-difluoro-4-(vinylsulfonyl)phenyl)-1H-pyrazolo[3,4-d]pyrimidin-6-amine], for which the IC50 lay within 25 to 150 nM.

Regarding `CN(C)[C@H]1CC[C@@H](Cn2ncc3cnc(Nc4ccc(S(C)(=O)=O)cc4)nc32)CC1` [Compound 40, 1-(((1s,4s)-4-(dimethylamino)cyclohexyl)methyl)-N-(4-(methylsulfonyl)phenyl)-1H-pyrazolo[3,4-d]pyrimidin-6-amine formate], the IC50 was 25 to 150 nM.

Take `CS(=O)(=O)c1ccc(Nc2ncc3cnn(C4CCC5(CC4)COC5)c3n2)cc1` [Compound 41, N-(4-(methylsulfonyl)phenyl)-1-(2-oxaspiro[3.5]nonan-7-yl)-1H-pyrazolo[3,4-d]pyrimidin-6-amine]: the IC50 was in the range of 25 to 150 nM.

As for `C=CS(=O)(=O)c1ccc(Nc2ncc3cnn(CC4CCCCC4)c3n2)cc1C(F)(F)F` [Compound 42, 1-(cyclohexylmethyl)-N-(3-(trifluoromethyl)-4-(vinylsulfonyl)phenyl)-1H-pyrazolo[3,4-d]pyrimidin-6-amine], the IC50 is 25 to 150 nM.
